How the values were obtained:
Human melanocortin (MC5) = molecular target: T1, Human melanocortin (MC5) (Homo sapiens, UniProt P33032); assay: Radioligand binding, human melanocortin MC5 membranes, FlashPlate, [125I]-NDP-αMSH; conditions: compound at 10 μM, [125I]-NDP-αMSH
T1 construct: purchased Perkin Elmer Biosignal
How it was run: (§1)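 Cloned human receptor membranes were coated onto FlashPlate wells and incubated with radioligand and compound (added from a 0.5 mM DMSO daughter plate) for 1 hour at room temperature in the dark. Scintillation counting gave percent inhibition, with DMSO defining total and reference ligand defining non-specific binding.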

Human Melanocortin (MC3) = molecular target: T2, Human Melanocortin (MC3) (Homo sapiens, UniProt P41968); assay: Radioligand binding, human melanocortin MC3 membranes, FlashPlate, [125I]-NDP-αMSH; conditions: compound at 10 μM, [125I]-NDP-αMSH
T2 construct: purchased Perkin Elmer Biosignal
How it was run: as §1

Mouse urotensin (mUR2) = molecular target: T3, Mouse urotensin (mUR2) (Mus musculus, UniProt Q8VIH9); assay: Radioligand binding, mouse urotensin mUR2 membranes, FlashPlate, [125I]-Urotensin II; conditions: compound at 10 μM, [125I]-Urotensin II
T3 construct: purchased Perkin Elmer Biosignal
T3 sequence (Q8VIH9 1-385): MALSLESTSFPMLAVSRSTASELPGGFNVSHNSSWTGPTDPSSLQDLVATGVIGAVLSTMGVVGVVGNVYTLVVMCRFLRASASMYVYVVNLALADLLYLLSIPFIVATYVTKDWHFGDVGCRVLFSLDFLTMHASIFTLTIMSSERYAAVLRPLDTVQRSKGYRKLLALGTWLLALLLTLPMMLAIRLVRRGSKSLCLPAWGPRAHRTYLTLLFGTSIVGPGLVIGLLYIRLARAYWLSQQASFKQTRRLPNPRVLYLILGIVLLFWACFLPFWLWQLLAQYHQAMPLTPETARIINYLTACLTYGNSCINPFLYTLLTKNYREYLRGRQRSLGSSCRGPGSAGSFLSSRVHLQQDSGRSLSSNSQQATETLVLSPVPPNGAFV
How it was run: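 Cloned mouse urotensin (mUR2) receptor membranes from Perkin Elmer Biosignal were immobilized in FlashPlate microplates using a proprietary coating. Each well got 19.5 μl buffer, then 0.5 μl of DMSO, reference ligand, or compound. Adding 5 μl of [125I]-Urotensin II, diluted to 5× final concentration in binding buffer, started binding. Plates were sealed with TopSeal-A and incubated 1 hour at room temperature in the dark. Wells were counted for 30 seconds each on a TopCount after a 60-second delay, and percentage inhibition was calculated.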

Human opioid (ORL1) = molecular target: T4, Human opioid (ORL1) (Homo sapiens, UniProt P41146); assay: Radioligand binding, human opioid ORL1 membranes, FlashPlate, [125I]-Nociceptin; conditions: compound at 10 μM, [125I]-Nociceptin
T4 construct: purchased Perkin Elmer Biosignal
How it was run: as §1

Human neurokinin (NK1) = molecular target: T5, Human neurokinin (NK1) (Homo sapiens, UniProt P25103); assay: Radioligand binding, human neurokinin NK1 membranes, filtration, [125I]-Substance P; conditions: compound at 10 μM, [125I]-Substance P
T5 construct: purchased Perkin Elmer Biosignal
How it was run: (§2)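 Filtration binding on cloned human receptor membranes (1 Unit/well), [125I]-Substance P for NK1 and [3H]-Diprenorphine for KOP, 1 h at room temperature. Filters PEI-presoaked, washed with cold 50 mM Tris-HCl pH 7.4, counted by scintillation; percent inhibition calculated, reference ligand defining non-specific binding.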

Human μ-opioid (MOP) = molecular target: T6, Human μ-opioid (MOP) (Homo sapiens, UniProt P35372); assay: Radioligand binding, human μ-opioid (MOP) membranes, FlashPlate, [3H]-Naloxone; conditions: compound at 10 μM, [3H]-Naloxone
T6 construct: purchased Perkin Elmer Biosignal
How it was run: as §1

[1] = molecular target: T7, Human neuropeptide Y (NPY-Y1) (Homo sapiens, UniProt P25929); assay: Radioligand binding, human neuropeptide Y NPY-Y1 membranes, FlashPlate, [125I]-PYY; conditions: compound at 10 μM, [125I]-PYY
T7 construct: purchased Perkin Elmer Biosignal
T7 sequence (P25929 1-384): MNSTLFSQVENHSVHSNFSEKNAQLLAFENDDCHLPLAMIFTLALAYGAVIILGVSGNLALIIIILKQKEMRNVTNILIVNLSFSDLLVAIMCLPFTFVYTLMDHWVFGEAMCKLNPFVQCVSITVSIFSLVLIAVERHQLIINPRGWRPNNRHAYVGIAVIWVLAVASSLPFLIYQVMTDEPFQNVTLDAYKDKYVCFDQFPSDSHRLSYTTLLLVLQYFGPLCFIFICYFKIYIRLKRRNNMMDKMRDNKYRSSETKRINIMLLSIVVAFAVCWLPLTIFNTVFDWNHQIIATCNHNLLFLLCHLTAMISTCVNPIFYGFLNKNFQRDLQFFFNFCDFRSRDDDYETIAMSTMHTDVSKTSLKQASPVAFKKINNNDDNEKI
How it was run: as §1

Human κ-Opioid (KOP) = molecular target: T8, Human κ-Opioid (KOP) (Homo sapiens, UniProt P41145); assay: Radioligand binding, human κ-opioid (KOP) membranes, filtration, [3H]-Diprenorphine; conditions: compound at 10 μM, [3H]-Diprenorphine
T8 construct: purchased Perkin Elmer Biosignal
How it was run: as §2

Human δ-opioid (DOP) = molecular target: T9, Human δ-opioid (DOP) (Homo sapiens, UniProt P41143); assay: Radioligand binding, human δ-opioid (DOP) membranes, FlashPlate, [3H]-Bremazocine; conditions: compound at 10 μM, [3H]-Bremazocine
T9 construct: purchased Perkin Elmer Biosignal
How it was run: as §1

[2] = molecular target: T10, Human melanin-concentrating hormone (MCH1) (Homo sapiens, UniProt Q99705); assay: Radioligand binding, human melanin-concentrating hormone MCH1 membranes, FlashPlate, [125I]-S36057; conditions: compound at 10 μM; for A6: inhibition of radioligand binding, human melanin-concentrating hormone (MCH1): [125I]-S36057
T10 construct: purchased Perkin Elmer Biosignal
How it was run: as §1

Human Melanocortin (MC4) = molecular target: T11, Human Melanocortin (MC4) (Homo sapiens, UniProt P32245); assay: Radioligand binding, human melanocortin MC4 membranes, FlashPlate, [125I]-NDP-αMSH; conditions: compound at 10 μM, [125I]-NDP-αMSH
T11 construct: purchased Perkin Elmer Biosignal
How it was run: as §1

T6 sequence (P35372 whole entry): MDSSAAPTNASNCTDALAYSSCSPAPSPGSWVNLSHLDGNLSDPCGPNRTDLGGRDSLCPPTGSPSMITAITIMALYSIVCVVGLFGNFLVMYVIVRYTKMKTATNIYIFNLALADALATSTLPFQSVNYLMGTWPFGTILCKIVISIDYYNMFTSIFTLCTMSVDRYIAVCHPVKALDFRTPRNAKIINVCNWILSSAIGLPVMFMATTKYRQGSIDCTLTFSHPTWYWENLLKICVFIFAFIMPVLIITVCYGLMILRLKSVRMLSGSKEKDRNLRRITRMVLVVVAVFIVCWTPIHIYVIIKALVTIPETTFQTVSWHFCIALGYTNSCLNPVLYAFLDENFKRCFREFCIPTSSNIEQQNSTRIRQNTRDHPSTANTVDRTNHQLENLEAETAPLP
T8 sequence (P41145 whole entry): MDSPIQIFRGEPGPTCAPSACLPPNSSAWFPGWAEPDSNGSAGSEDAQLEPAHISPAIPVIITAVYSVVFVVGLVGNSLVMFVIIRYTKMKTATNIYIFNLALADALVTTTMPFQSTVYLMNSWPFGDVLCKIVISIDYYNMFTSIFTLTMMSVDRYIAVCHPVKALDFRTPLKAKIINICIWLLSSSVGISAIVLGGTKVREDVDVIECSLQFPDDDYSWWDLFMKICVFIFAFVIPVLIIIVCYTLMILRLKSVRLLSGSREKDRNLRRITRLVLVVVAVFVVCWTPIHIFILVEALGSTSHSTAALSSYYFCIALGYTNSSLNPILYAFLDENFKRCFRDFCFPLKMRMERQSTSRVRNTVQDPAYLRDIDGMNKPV
T2 sequence (P41968 whole entry): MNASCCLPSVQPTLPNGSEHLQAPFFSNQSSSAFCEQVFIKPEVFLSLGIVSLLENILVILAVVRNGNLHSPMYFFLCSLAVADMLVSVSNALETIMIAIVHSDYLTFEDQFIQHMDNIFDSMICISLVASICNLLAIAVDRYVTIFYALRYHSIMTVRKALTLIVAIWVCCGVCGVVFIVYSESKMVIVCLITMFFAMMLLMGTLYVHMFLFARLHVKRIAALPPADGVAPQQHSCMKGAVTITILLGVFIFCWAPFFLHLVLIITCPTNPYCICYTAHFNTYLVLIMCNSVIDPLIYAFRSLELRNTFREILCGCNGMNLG
T1 sequence (P33032 whole entry): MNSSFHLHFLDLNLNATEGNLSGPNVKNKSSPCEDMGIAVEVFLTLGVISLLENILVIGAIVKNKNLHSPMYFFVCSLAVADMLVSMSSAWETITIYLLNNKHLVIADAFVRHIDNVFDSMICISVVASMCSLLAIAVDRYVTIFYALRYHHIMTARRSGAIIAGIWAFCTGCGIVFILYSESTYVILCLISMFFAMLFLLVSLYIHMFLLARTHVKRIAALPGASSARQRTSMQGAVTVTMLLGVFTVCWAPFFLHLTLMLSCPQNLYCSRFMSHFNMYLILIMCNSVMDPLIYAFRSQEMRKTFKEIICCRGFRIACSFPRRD
T4 sequence (P41146 whole entry): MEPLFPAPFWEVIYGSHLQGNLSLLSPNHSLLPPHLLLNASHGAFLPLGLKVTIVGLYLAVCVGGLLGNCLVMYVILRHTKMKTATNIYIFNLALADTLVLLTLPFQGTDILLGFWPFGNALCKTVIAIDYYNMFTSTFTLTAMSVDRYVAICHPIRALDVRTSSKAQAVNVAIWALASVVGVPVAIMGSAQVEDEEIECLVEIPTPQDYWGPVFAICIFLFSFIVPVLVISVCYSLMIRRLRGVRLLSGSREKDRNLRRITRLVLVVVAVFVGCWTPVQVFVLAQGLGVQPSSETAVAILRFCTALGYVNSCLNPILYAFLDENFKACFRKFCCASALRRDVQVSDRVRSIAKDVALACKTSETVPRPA
T5 sequence (P25103 whole entry): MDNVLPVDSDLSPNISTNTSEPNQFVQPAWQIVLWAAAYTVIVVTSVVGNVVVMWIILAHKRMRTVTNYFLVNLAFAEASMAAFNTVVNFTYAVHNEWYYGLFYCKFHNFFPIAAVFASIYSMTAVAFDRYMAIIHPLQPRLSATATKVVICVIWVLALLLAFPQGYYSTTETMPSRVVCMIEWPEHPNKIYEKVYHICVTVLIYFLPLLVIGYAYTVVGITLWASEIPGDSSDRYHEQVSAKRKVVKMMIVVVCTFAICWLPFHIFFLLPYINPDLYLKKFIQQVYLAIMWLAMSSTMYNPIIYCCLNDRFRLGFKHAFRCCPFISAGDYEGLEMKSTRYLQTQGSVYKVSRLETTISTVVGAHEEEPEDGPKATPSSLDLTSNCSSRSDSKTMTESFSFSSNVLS
T11 sequence (P32245 whole entry): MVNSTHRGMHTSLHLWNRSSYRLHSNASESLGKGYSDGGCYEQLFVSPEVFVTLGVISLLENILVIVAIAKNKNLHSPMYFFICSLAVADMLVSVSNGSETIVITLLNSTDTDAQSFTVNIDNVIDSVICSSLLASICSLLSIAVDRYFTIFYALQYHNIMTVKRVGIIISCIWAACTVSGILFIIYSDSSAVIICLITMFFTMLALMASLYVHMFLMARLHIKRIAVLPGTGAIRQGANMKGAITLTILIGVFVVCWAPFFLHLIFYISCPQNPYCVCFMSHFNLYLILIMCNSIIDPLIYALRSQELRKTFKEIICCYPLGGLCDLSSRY
T10 sequence (Q99705 whole entry): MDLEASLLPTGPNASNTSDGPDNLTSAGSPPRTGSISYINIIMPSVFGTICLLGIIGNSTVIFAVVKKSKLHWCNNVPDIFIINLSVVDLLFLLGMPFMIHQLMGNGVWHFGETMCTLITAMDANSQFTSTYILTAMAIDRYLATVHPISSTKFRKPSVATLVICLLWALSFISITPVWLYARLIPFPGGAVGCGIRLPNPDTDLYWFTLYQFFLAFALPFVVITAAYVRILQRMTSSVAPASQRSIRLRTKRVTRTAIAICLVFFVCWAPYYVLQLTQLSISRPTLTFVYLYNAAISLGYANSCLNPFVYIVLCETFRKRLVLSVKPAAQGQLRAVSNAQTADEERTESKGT
T9 sequence (P41143 whole entry): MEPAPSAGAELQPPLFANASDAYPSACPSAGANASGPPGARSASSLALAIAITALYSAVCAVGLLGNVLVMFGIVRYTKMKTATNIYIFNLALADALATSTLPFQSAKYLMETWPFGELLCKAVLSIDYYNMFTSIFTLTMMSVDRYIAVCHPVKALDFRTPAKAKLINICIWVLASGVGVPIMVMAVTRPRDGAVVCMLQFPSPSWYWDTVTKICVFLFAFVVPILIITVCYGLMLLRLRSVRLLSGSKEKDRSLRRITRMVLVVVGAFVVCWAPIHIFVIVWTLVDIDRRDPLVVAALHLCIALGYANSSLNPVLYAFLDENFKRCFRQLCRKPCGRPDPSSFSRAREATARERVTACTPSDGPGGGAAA

| Structure (SMILES) | A5: inhibition of radioligand binding, human melanocortin (MC5) (Human melanocortin (MC5)) | A3: inhibition of radioligand binding, human melanocortin (MC3) (Human Melanocortin (MC3)) | A11: inhibition of radioligand binding, mouse urotensin (mUR2) (Mouse urotensin (mUR2)) | A10: inhibition of radioligand binding, human opioid (ORL1) (Human opioid (ORL1)) | A8: inhibition of radioligand binding, human neurokinin (NK1) (Human neurokinin (NK1)) | A7: inhibition of radioligand binding, human μ-opioid (MOP) (Human μ-opioid (MOP)) | A9: inhibition of radioligand binding, human neuropeptide Y (NPY-Y1) [1] | A2: inhibition of radioligand binding, human κ-opioid (KOP) (Human κ-Opioid (KOP)) | A1: inhibition of radioligand binding, human δ-opioid (DOP) (Human δ-opioid (DOP)) | A6: inhibition of radioligand binding, human melanin-concentrating hormone (MCH1) [2] | A4: inhibition of radioligand binding, human melanocortin (MC4) (Human Melanocortin (MC4)) | other results |
| --- | --- | --- | --- | --- | --- | --- | --- | --- | --- | --- | --- | --- |
| N=C(N)NCCC(=O)N[C@H]1C(OCc2ccc(Cl)cc2)O[C@H](COCc2ccc3ccccc3c2)[C@@H](O)[C@@H]1OCc1ccc(-c2ccccc2)cc1 (stereo partly shown) [compound 534] | + (“+” indicates greater than 50% inhibition at 10 μM) | + (“+” indicates greater than 50% inhibition at 10 μM) | − (“−” indicates less than 50% inhibition at 10 μM) | − (“−” indicates less than 50% inhibition at 10 μM) | + (“+” indicates greater than 50% inhibition at 10 μM) | − (“−” indicates less than 50% inhibition at 10 μM) | − (“−” indicates less than 50% inhibition at 10 μM) | − (“−” indicates less than 50% inhibition at 10 μM) | − (“−” indicates less than 50% inhibition at 10 μM) | + (“+” indicates greater than 50% inhibition at 10 μM) | + (“+” indicates greater than 50% inhibition at 10 μM) | – |
| N=C(N)NCC(=O)NC1C(OCc2ccc(Cl)cc2)OC(COCc2ccc3ccccc3c2)C(O)C1OCc1ccc(Cl)cc1 (stereo not shown) [compound 417] | – | – | – | – | – | – | – | – | – | – | – | A5: inhibition of radioligand binding (Human melanocortin (MC5); human MC5 membranes): + (“+” indicates greater than 50% inhibition at 10 μM); A3: inhibition of radioligand binding (Human Melanocortin (MC3); human MC3 membranes): + (“+” indicates greater than 50% inhibition at 10 μM); A11: inhibition of radioligand binding (Mouse urotensin (mUR2); mouse mUR2 membranes): − (“−” indicates less than 50% inhibition at 10 μM); A10: inhibition of radioligand binding (Human opioid (ORL1); human ORL1 membranes): − (“−” indicates less than 50% inhibition at 10 μM); A8: inhibition of radioligand binding (Human neurokinin (NK1); human NK1 membranes): + (“+” indicates greater than 50% inhibition at 10 μM); A7: inhibition of radioligand binding (Human μ-opioid (MOP); human MOP membranes): − (“−” indicates less than 50% inhibition at 10 μM); A9: inhibition of radioligand binding ([1]; human NPY-Y1 membranes): − (“−” indicates less than 50% inhibition at 10 μM); A2: inhibition of radioligand binding (Human κ-Opioid (KOP); human KOP membranes): − (“−” indicates less than 50% inhibition at 10 μM); A1: inhibition of radioligand binding (Human δ-opioid (DOP); human DOP membranes): − (“−” indicates less than 50% inhibition at 10 μM); A6: inhibition of radioligand binding ([2]; [125I]-S36057, human MCH1 membranes): + (“+” indicates greater than 50% inhibition at 10 μM); A4: inhibition of radioligand binding (Human Melanocortin (MC4); human MC4 membranes): + (“+” indicates greater than 50% inhibition at 10 μM) |
| COC1C(O)C(COCc2ccc3ccccc3c2)OC(OCc2ccc(Cl)cc2)C1NC(=O)C1CCCN(C(=N)N)C1 (stereo not shown) [compound 348] | + (“+” indicates greater than 50% inhibition at 10 μM) | − (“−” indicates less than 50% inhibition at 10 μM) | − (“−” indicates less than 50% inhibition at 10 μM) | − (“−” indicates less than 50% inhibition at 10 μM) | + (“+” indicates greater than 50% inhibition at 10 μM) | − (“−” indicates less than 50% inhibition at 10 μM) | − (“−” indicates less than 50% inhibition at 10 μM) | − (“−” indicates less than 50% inhibition at 10 μM) | − (“−” indicates less than 50% inhibition at 10 μM) | − (“−” indicates less than 50% inhibition at 10 μM) | − (“−” indicates less than 50% inhibition at 10 μM) | – |
| NCCCC(=O)NC1C(OCc2ccccc2)OC(COCc2ccc3ccccc3c2)C(O)C1OCc1ccccc1 (stereo not shown) [compound 378] | + (“+” indicates greater than 50% inhibition at 10 μM) | − (“−” indicates less than 50% inhibition at 10 μM) | − (“−” indicates less than 50% inhibition at 10 μM) | − (“−” indicates less than 50% inhibition at 10 μM) | + (“+” indicates greater than 50% inhibition at 10 μM) | − (“−” indicates less than 50% inhibition at 10 μM) | − (“−” indicates less than 50% inhibition at 10 μM) | − (“−” indicates less than 50% inhibition at 10 μM) | − (“−” indicates less than 50% inhibition at 10 μM) | − (“−” indicates less than 50% inhibition at 10 μM) | + (“+” indicates greater than 50% inhibition at 10 μM) | – |
| N=C(N)NCCC(=O)N[C@H]1C(OCc2ccc(Cl)cc2)O[C@H](COCc2ccccc2)[C@@H](O)[C@@H]1OCc1ccc(-c2ccccc2)cc1 (stereo partly shown) [compound 536] | + (“+” indicates greater than 50% inhibition at 10 μM) | + (“+” indicates greater than 50% inhibition at 10 μM) | − (“−” indicates less than 50% inhibition at 10 μM) | − (“−” indicates less than 50% inhibition at 10 μM) | + (“+” indicates greater than 50% inhibition at 10 μM) | – | − (“−” indicates less than 50% inhibition at 10 μM) | + (“+” indicates greater than 50% inhibition at 10 μM) | – | + (“+” indicates greater than 50% inhibition at 10 μM) | + (“+” indicates greater than 50% inhibition at 10 μM) | A7: inhibition of radioligand binding, human μ-opioid (MOP) (Human μ-opioid (MOP); 10 µM): − (“−” indicates less than 50% inhibition at 10 μM); A1: inhibition of radioligand binding, human δ-opioid (DOP) (Human δ-opioid (DOP); 10 µM): − (“−” indicates less than 50% inhibition at 10 μM) |

Reference: US20080009418A1, “Selective Inhibitors” (Alchemia LTD., priority 2004, published 2008)
